Assay results from the NIST ThermoML archive (doi:10.1021/je010272x).
± gives the expanded uncertainty stated by the source.

Columns and labels:
[1] = Liquid
[2] = Boiling temperature at pressure P; details: Liquid, ebulliometry

Row | vapor or sublimation pressure ([1]; 357.85 K) [kPa] | vapor or sublimation pressure ([1]; 364.85 K) [kPa] | vapor or sublimation pressure ([1]; 370.45 K) [kPa] | vapor or sublimation pressure ([1]; 372.95 K) [kPa] | vapor or sublimation pressure ([1]; 375.15 K) [kPa] | vapor or sublimation pressure ([1]; 379.05 K) [kPa] | vapor or sublimation pressure ([1]; 382.75 K) [kPa] | vapor or sublimation pressure ([1]; 385.65 K) [kPa] | vapor or sublimation pressure ([1]; 388.95 K) [kPa] | vapor or sublimation pressure ([1]; 390.35 K) [kPa] | vapor or sublimation pressure ([1]; 391.65 K) [kPa] | vapor or sublimation pressure ([1]; 394.15 K) [kPa] | vapor or sublimation pressure ([1]; 396.65 K) [kPa] | vapor or sublimation pressure ([1]; 398.85 K) [kPa] | vapor or sublimation pressure ([1]; 401.05 K) [kPa] | vapor or sublimation pressure ([1]; 402.45 K) [kPa] | Structure (SMILES) | Boiling temperature at pressure P ([2]; 33.3 kPa) [°C] | Boiling temperature at pressure P ([2]; 66.6 kPa) [°C] | Boiling temperature at pressure P ([2]; 101.3 kPa) [°C]
1 | 16.7 ± 0.3 | 23.3 ± 0.3 | 30 ± 0.4 | 33.3 ± 0.4 | 36.7 ± 0.4 | 43.3 ± 0.4 | 50 ± 0.4 | 56.6 ± 0.5 | 63.3 ± 0.5 | 66.6 ± 0.5 | 70 ± 0.5 | 76.6 ± 0.5 | 83.3 ± 0.6 | 90 ± 0.6 | 96.6 ± 0.6 | 101.3 ± 0.6 | CCC(C)CO (centres undefined) [2-methyl-1-butanol] | – | – | –
2 | – | – | – | – | – | – | – | – | – | – | – | – | – | – | – | – | CCO [ethanol] | 52.60 ± 0.2 | 68.00 ± 0.2 | 78.30 ± 0.2
